Bridge positions count the residues as written; N and C are the ends. Peptide text beside a SMILES is read from it.
Experiments:
[1] = test system: recruitment of leukocytes in the peritoneal cavity; assay: Prevention of peritonitis induced by LPS; type: in vivo, mice; conditions: 24 h
Method: Mice were injected intraperitoneally with 4 nmol or 40 nmol of the peptide identified by SEQ ID NO: 7 dissolved in 500 μL of sterile saline solution, 30 minutes prior to administering intraperitoneal injection of LPS (O55:BR 20 μg/mL, Sigma) diluted in 500 μL of sterile saline solution. Animals injected only with sterile saline were considered controls, 24 h after injection of LPS, the animals were sacrificed with a high dose of chloral hydrate to obtain the washing of the peritoneal cavity to count the number of cells (A), neutrophils (B) and macrophages (C). The material removed from the peritoneum was centrifuged for 10 minutes at 1500 rpm and 4° C., the supernatant was separated and frozen at −20° C. for future analyses, while the remaining material containing the cells was re-suspended in PBS 0.1% BSA. The total count was performed in a Neubauer chamber, For the differential count, an aliquot of the cellular suspension was placed on slides and centrifuged (Citospin), stained with Hema 3 and examined under the optical microscope, counting a total of 300 cells. The absolute number of each cellular population was obtained by multiplication of the percentages by the total number of cells found in the sample volume.

[2] = test system: leukocytes and eosinophils recruited to the alveolar space; assay: Acute pulmonary asthma induced by ovalbumin, bronchoalveolar lavage cell count; type: in vivo, BALB/c mice
Method: (§1) After the 14th day, the animals were submitted to 3 challenges per week with a 1% OVA aerosol, Immunized animals and challenged only with PBS (phosphate buffered saline) were considered controls. To induce chronic asthma, the animals were challenged 3 times a week during 3 consecutive weeks.
(§2) For the aerosol challenge, the animals were placed in a closed plastic box adapted with an ultra-sonic nebulizer (US-800, ICEL) and exposed to inhalation of 2 mL of a 1% solution of ovalbumin (grade V, Sigma) in saline, over 20 minutes, 24 h after the last aerosol challenge, the animals were sacrificed with a high dose of chloral hydrate to obtain the peripheral blood, the Broncho-Alveolar Lavage (BAL) and the pulmonary tissue to count the total number of leukocytes and eosinophils.
(§3) Groups of animals were treated with 4 nmol or 40 nmol of the peptide identified by SEQ ID NO: 7 intranasally and intraperitoneally 30 minutes before each challenge, and orally 1 hour before each challenge. The group of animals with chronic asthma was treated only with 4 nmol or 40 nmol of the peptide identified by SEQ ID NO: 7_intraperitoneally 30 minutes before each challenge.
(§4) The aerial space was washed with three, 1 mL aliquots of HBSS (Hanks Balanced Salt Solution) EDTA (ethylenediaminetetraacetic acid). After collection, the BAL was immediately centrifuged at 800 rpm for 10 minutes, the supernatant discarded, and the cellular button was re-suspended in 1 mL of HBSS 0.1% BSA (bovine serum albumin) to count the cells. The total cells from the BAL were counted in a Neubauer chamber. Aliquots containing 5×10^5 cells were centrifuged on glass slides using a cytocentrifuge, for 5 minutes at 600 rpm. To determine the percentages of the different cellular populations, the slides were stained with Hema 3 and 300 cells were counted in randomly selected fields. The absolute number of each cellular population in the BAL was obtained by multiplication of the percentages by the total number of cells found in the sample volume.

[3] = test system: leukocytes and eosinophils recruited to the alveolar space; assay: Chronic asthma induced by ovalbumin, bronchoalveolar lavage cell count; type: in vivo, BALB/c mice
Method: as §1, §2, §3, §4

trypsin = target: T1, trypsin (Bos taurus, UniProt P00760); assay: Inhibition of trypsin, determination of inhibition constants (Ki); type: biochemical
T1 construct: gene PRSS1
T1 sequence (P00760 24-246): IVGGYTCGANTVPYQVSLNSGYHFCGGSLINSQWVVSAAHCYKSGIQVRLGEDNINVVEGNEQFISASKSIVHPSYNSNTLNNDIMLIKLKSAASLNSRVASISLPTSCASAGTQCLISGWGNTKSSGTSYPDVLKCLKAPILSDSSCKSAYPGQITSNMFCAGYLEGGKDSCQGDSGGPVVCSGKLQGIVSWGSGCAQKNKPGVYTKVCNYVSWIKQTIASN
Method: The substrate utilized was Abz-Phe-Arg-Ser-Ser-Arg-Gln-EDDnp (SEQ ID NO: 11), a fluorescent analog of bradykinin, purified by way of high pressure liquid chromatography, (HPLC) until purity greater than 95% (single peak) was achieved.
The hydrolysis reactions were conducted using a Hitachi. F-2000 spectrofluorometer, with the excitation and emission slits set at 10 and 20 nm, and the excitation and emission wavelengths at 320 and 420 nm, respectively. The temperature of the reaction cuvette was maintained at 37° C. in a thermostatically controlled compartment.
The enzymatic activity of trypsin (0.5-5 nM) was determined in 50 mM Tris-HCl buffer, pH 8.0, containing 20 mM NaCl at 37° C., with the addition of approximately 0.1-6.0 μM of the fluorescent substrates. The increase in fluorescence was monitored continually for 5 min in the spectrofluorometer. When necessary, the correction of the fluorescent reading was done using the empiric equation described by Araújo et. al., Biochemistry 25; 8519, 2000. Kinetic data were determined from the initial hydrolysis (consumption of substrate less than 10%) and calculations involving kinetic parameters (Km, Vmáx and kcat) were performed using the Michaelis-Menten equation furnished by the GRAFIT for Windows 3.0 program.
To determine the inhibition kinetics of trypsin with the peptides of the present invention, three substrate concentrations were used: a) corresponding to half of the value of Km (0.8 μM); b) corresponding to the whole value of Km (1.6 μM); c) corresponding to slightly more than double the value of Km (3.5 μM). […] Incubation carried out at 37° C. Tris-HCl buffer, pH 8.0, containing 20 mM NaCl at 37° C. For characterization of enzymatic inhibition, a Lineweaver-Burk plot was employed (1/V vs 1/S), and the value of Ki was determined from the relation between the apparent inhibition constant (Ki(app)) and the value of Km for the substrate: Ki(app)=[I]/[(v0/vi)−1] and Ki=Ki(app)/[(Km/[S])+1] where; [I]=inhibitor concentration; (v0/vi)=ratio of the hydrolysis velocities in the absence and presence of inhibitor, respectively. Km/[S]=ratio between Km of the substrate and substrate concentration.

[4] = test system: leukocyte rolling in post-capillary venules of the cremaster muscle; conditions: topical, LPS-induced rolling; FIG. 2 and 3
[5] = 4 or 40 nmol i.p. 30 min before LPS, FIG. 4
[6] = 4 nmol or 40 nmol intraperitoneally, FIG. 6

CC[C@H](C)[C@H](N)C(=O)N1CCC[C@H]1C(=O)N[C@@H](CCCNC(=N)N)C(=O)N[C@H]1CSSC[C@@H](C(N)=O)NC(=O)[C@H](CCSC)NC(=O)[C@H](CCCCN)NC(=O)[C@H](C(C)C)NC(=O)CNC(=O)[C@@H]2CCCN2C(=O)[C@H](CCSC)NC(=O)[C@H](CCCCN)NC(=O)[C@H](CCCNC(=N)N)NC1=O [SEQ ID NO: 7, Ile1-Pro2-Arg3-Cys4-Arg5-Lys6-Met7-Pro8-Gly9-Val10-Lys11-Met12-Cys13-NH2] (H-IPRCRKMPGVKMC-NH2; disulfide 4-13)
prevention of the recruitment of leukocytes in the peritoneal cavity ([1]; 4 nmol and 40 nmol i.p. 30 min before LPS, compared to the control): ~50% | recruitment of macrophages in the peritoneal cavity [1, 5]: prevented the recruitment | recruitment of neutrophils in the peritoneal cavity [1, 5]: prevented the recruitment | effect on recruitment of cells to the lung compared with oral dexamethasone 0.3 mg/Kg [2]: similar | total number of leukocytes recruited to the alveolar space ([2]; 4 nmol or 40 nmol, all routes (intranasal, intraperitoneal, oral), FIG. 5): provoked a decrease | eosinophils in the bronchoalveolar lavage ([2]; 4 nmol or 40 nmol, all routes, FIG. 5): absence of eosinophils | effect on recruitment of cells to the lung compared with oral dexamethasone 0.3 mg/Kg [3]: similar | eosinophils in the bronchoalveolar lavage [3, 6]: decrease in eosinophils | total number of leukocytes recruited to the alveolar space [3, 6]: provoked a decrease | Ki (trypsin): 20 nM

CC[C@H](C)[C@H](NC(C)=O)C(=O)N1CCC[C@H]1C(=O)N[C@@H](CCCNC(=N)N)C(=O)N[C@H]1CSSC[C@@H](C(N)=O)NC(=O)[C@H](CCSC)NC(=O)[C@H](CCCCN)NC(=O)[C@H](C(C)C)NC(=O)CNC(=O)[C@@H]2CCCN2C(=O)[C@H](CCSC)NC(=O)[C@H](CCCCN)NC(=O)[C@H](CCCNC(=N)N)NC1=O [SEQ ID NO: 9, Ac-Ile1-Pro2-Arg3-Cys4-Arg5-Lys6-Met7-Pro8-Gly9-Val10-Lys11-Met12-Cys13-NH2] (Ac-IPRCRKMPGVKMC-NH2; disulfide 4-13)
Ki (trypsin): 21.8 nM

Cys1-Arg2-Lys3-Met4-Pro5-Gly6-Val7-Lys8-Met9-Cys10 [SEQ ID NO: 12]
inhibition of leukocyte rolling (in words) [4]: maintained inhibitory activity

Ile1-Pro2-Arg3-Cys4-Arg5-Lys6-Met7-Pro8-Gly9-Val10-Ala11-Met12-Cys13 [SEQ ID NO: 10]
inhibition of leukocyte rolling (in words) [4]: not efficient

Source: patent US8304382B2, “Anti-inflammatory and anti-allergic cyclic peptides” (Cristalia Productos Quimicos Farmaceuticos Ltda., priority 2006, dated 2012)
